One may read the solubility as how much of the substance goes into solution per volume. The pKi is the negative decadic logarithm of the Ki, by convention in mol/L. Lower therefore signals a large Ki. What is called half-life is how long it takes for the measured level to halve. A higher half-life goes with slow loss.

Data set [1] is described as follows: Analysis of rat plasma samples by LC-MS/MS. The class given is in vivo. The settings on record: approx. 10 min after last of three cumulative i.v. doses, heparinised samples, n = 6. As to the method: Analysis of plasma samples was performed by Peakdale Molecular (Chapel-en-la-Frith, UK). End-point blood samples were taken from rats (n = 6) following completion of three cumulative doses of CMF-019 (as described before), approximately 10 min after the last intravenous administration. The blood was collected in heparin-coated vials and spun at low speed (2000 g, 5 min), the plasma supernatant was removed and frozen. Quantitative analysis was performed using LC-MS/MS with metaprolol as an internal standard and CMF-019 to quantify CMF-019 in the samples.

The nature of data set [2]: Thermodynamic solubility (Cyprotex). The class given is physicochemical. The settings on record: pH 7.4, saline or isotonic, thermodynamic from solid, pH7.4, potassium salt. On the procedure:
(§1) CMF-019 ((S)-3-[1-(1-Ethyl-propyl)-2-thiophen-2-ylmethyl-1H-benzoimidazole-5-carbonyl]-amino-5-methyl-hexanoic acid) has previously been prepared (compound number 107 from patent US20140094450, 2014) via a minor modification of the literature procedure (Fig. 2). […] Thermodynamic solubility (potassium salt) and an in vitro murine microsomal stability of CMF-019 were performed at Cyprotex (Macclesfield, UK).

Data set [3] has as its target T1, apelin receptor (Rattus norvegicus, UniProt Q9JHG3).
T1 construct: from tissue; host or cells: rat whole heart homogenate
T1 sequence (Q9JHG3 1-377): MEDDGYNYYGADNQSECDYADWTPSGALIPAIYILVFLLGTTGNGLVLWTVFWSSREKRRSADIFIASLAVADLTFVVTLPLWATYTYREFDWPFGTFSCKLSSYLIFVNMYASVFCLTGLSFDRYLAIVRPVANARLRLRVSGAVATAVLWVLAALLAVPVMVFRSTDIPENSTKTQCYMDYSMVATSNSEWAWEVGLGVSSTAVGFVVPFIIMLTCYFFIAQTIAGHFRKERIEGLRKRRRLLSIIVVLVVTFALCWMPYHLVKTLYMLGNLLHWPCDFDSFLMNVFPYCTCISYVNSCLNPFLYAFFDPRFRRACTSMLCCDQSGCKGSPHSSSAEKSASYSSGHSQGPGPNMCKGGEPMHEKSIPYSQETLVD
Briefly: Competition radioligand binding, rat whole heart homogenate.
Method: (§2) Initial binding assays were performed by Cerep (Celle L’Evescault, France) on Chinese Hamster Ovary (CHO-K1) cells expressing the human apelin receptor. Further experiments were performed on human homogenised left ventricle (HLV, 1.5 mg/ml) and rat and mouse whole heart homogenates to determine any species variability prior to in vivo experiments. […] Experiments were performed in triplicate and data analysed using GraphPad Prism 6 (GraphPad Software, Inc. La Jolla, USA). Binding affinities were calculated by the Cheng-Prusoff methodology using measured IC50 values.

The target of data set [4] is T2, apelin receptor (Homo sapiens, UniProt P35414).
T2 sequence (P35414 1-380): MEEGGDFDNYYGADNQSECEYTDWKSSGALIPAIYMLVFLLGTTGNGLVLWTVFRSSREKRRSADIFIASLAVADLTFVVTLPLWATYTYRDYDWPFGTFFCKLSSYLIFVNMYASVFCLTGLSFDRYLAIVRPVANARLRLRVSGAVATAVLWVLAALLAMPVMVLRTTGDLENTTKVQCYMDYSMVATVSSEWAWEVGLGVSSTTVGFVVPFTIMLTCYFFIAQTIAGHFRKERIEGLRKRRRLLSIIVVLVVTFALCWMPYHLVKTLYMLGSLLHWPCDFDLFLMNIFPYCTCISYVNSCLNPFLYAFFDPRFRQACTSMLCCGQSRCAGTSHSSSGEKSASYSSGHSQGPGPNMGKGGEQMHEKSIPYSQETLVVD
Put plainly: Bias calculations between pathways (ΔΔLogR, bias factors). The settings on record: compared to [Pyr1]apelin-13.
Method: β-Arrestin recruitment, β-arrestin mediated internalisation and cAMP assays were performed according to the manufacturer’s instructions (DiscoverX®, Fremont, CA) and as described previously [4].
All data are expressed as mean ± SEM values. Binding and cell-based experiments were performed in triplicate. For cell based assays, n-values are given as the number of replicates/number of experiments.

The target in a further data set is T3, native apelin receptor (Homo sapiens, UniProt P35414).
T3 sequence (P35414 1-380): T2 sequence (P35414 1-380)
Put plainly: Competition radioligand binding, human left ventricle homogenate.

The target in data set [5] is T2, apelin receptor. The note with it: compared to [Pyr1]apelin-13. The text has this:
Statistical significance was taken as 5%.

Data set [6] in a line: In vitro murine microsomal stability (Cyprotex). The class given is in vitro ADME. The settings on record: mouse, murine microsomes. As to the method:
as §1

Data set [7] concerns anaesthetised male Sprague–Dawley rats. Put plainly: Rat heart catheterisation (left ventricle pressure-volume catheter), intravenous injection. The class given is in vivo. The note with it: for increase in dP/dtMAX (cardiac contractility): cumulative bolus. From the text: Male Sprague-Dawley rats (273 ± 6 g; […] Temperature was monitored throughout the surgical procedure using a rectal probe. Prior to the start of surgery, it was ensured that pain reflexes had ceased by use of a hind-paw pinch test. The surgery was completed as previously described. In brief, the right external jugular vein was cannulated, flushed with heparin solution (2%, 0.9% saline, pH5, Macopharma) and the right common carotid artery located. The catheter (Millar Inc., SPR-869) was calibrated using the MPVS Ultra system (ADIstruments) before being inserted into the carotid and advanced to the left ventricle. Once a stable pressure-volume loop could be observed, the catheter was left in place for ten minutes. […] The effects on pressure and volume were measured and the heart rate monitored to determine and maintain a suitable depth of anaesthesia. […] Data were acquired using the MPVS Ultra system (ADIstruments) and analysed using LabChart 8 (ADIstruments). Values for the maximal change in left ventricular systolic pressure (LVSP), stroke volume, cardiac output, contractility ([…] lusitropy ([…]) from baseline were calculated from the raw data and compared. Following completion of the measurements the animal was euthanised by exsanguination under high flow isoflurane.

The target of data set [8] is T2, apelin receptor.
Method: as §2
The target in data set [9] is T4, apelin receptor (Mus musculus, UniProt Q9WV08).
T4 construct: from tissue; host or cells: mouse whole heart homogenate
T4 sequence (Q9WV08 1-377): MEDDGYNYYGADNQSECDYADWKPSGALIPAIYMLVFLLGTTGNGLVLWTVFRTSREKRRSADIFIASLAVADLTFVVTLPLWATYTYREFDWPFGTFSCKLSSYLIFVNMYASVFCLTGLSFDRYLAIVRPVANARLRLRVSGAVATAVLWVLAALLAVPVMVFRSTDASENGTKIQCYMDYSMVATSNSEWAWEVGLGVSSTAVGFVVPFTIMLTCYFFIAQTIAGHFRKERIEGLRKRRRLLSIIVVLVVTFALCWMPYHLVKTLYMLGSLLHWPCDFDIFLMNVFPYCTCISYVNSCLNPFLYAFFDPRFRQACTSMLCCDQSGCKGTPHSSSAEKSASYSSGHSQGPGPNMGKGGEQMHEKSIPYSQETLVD
Put plainly: Competition radioligand binding, mouse whole heart homogenate.
Method: as §2

Details of data set [10]: method as in earlier work. The note with it: saline at room temperature; cited from earlier work.
[11] abbreviates: 500 nmol i.v., anaesthetised rats.
[12] abbreviates: 5000 nmol i.v., anaesthetised rats.

Structures are written as SMILES. pKi: −log10 of the molar value. “Also recorded” adds a separate entry of the source. Counter-ions that a name gives are not always drawn. Like-named read-outs stand apart in the source and are kept apart here.

Method for native apelin receptor: as §2

In [1], `CCC(CC)n1c(Cc2cccs2)nc2cc(C(=O)N[C@H](CC(=O)O)CC(C)C)ccc21` [CMF-019 (potassium salt)] yielded a mean plasma concentration of 25.4 ± 2.5 µM. In addition, the solubility in [2] was 2090 µg/mL.
As to `CCC(CC)n1c(Cc2cccs2)nc2cc(C(=O)N[C@H](CC(=O)O)CC(C)C)ccc21` [CMF-019, (S)-3-[1-(1-Ethyl-propyl)-2-thiophen-2-ylmethyl-1H-benzoimidazole-5-carbonyl]-amino-5-methyl-hexanoic acid], the pKi at apelin receptor [3] was 8.49; at native apelin receptor, 8.58; on apelin receptor [8], 7.61; at apelin receptor [9], 8.71. The “bias factor (BF)” value is 5828 at apelin receptor [4] (cAMP (Gαi) over internalisation) and 398 at apelin receptor [4] (cAMP (Gαi) over β-arrestin). Besides, the ΔΔLogR on apelin receptor [4] (cAMP over internalisation) is given as 3.77 ± 0.25; on apelin receptor [4] (cAMP over β-arrestin), 2.60 ± 0.24; on apelin receptor [4] (β-arrestin over internalisation) it was 1.17 ± 0.26. For the same compound, the entries for the “relative effectiveness (RE)” value at apelin receptor [5] (cAMP), on apelin receptor [5] (internalisation) and at apelin receptor [5] (β-arrestin) were 4.19, 7.19 × 10^−4 and 0.01, respectively. Moreover, the ΔLogR on apelin receptor [5] (cAMP) is reported as 0.62 ± 0.16; at apelin receptor [5] (internalisation), −3.14 ± 0.19; at apelin receptor [5] (β-arrestin), −1.98 ± 0.18. In data set [1], this compound gave a mean plasma concentration of roughly 25 µM. The compound also displayed a half-life in [6] of 38 min. Also, the “increase in cardiac output” value in data set [7] (setting [11]) was 1210 ± 170 RVU/min. Besides, the “increase in stroke volume” value in [7] (setting [11]) came to 2.62 ± 0.31 RVU. The entries for the “increase in dP/dtMAX (cardiac contractility)” value in data set [7] (setting [11]) and in data set [7] (setting [12]) were 606 ± 112 mmHg/s and 833 ± 152 mmHg/s, respectively. The “increase in LVSP” value in [7] (setting [12]) amounted to 6.22 ± 1.98 mmHg. For the same compound, the adverse effects result in data set [7] (any of the concentrations administered (50–5000 nmol i.v.)) is “No adverse effects were observed”. For the same compound, the “effect on dP/dtMIN (lusitropy)” value in data set [7] (i.v., anaesthetised rats) is “Neither [Pyr^1]apelin-13 nor CMF-019 altered the dP/dtMIN; also recorded: did not alter”. The “effect on heart rate” value in [7] (i.v., anaesthetised rats) is reported as “without a change in heart rate”.
For `CC1=CC(=O)C(C2CCCCC2)=C/C1=N\OS(=O)(=O)c1ccccc1` [ML233], in data set [10], the solubility in saline result is recorded as “low solubility”.

The values are drawn from PMC5012889, “Cardiac action of the first G protein biased small molecule apelin agonist” (Biochemical Pharmacology, 2016).
